We go through eleven compounds from patent publication US7977384B1, “Anticancer tobacco cembranoids” (The University of Louisiana at Monroe, priority 2007, dated 2011).

Data set [1] relates to highly malignant +SA mouse mammary epithelial cell line. The data set is described as follows: Antiproliferative MTT assay on +SA mammary epithelial cells. The following applies: for IC50: 4-day culture, MTT. The class given is cell-based. How it is done:
The antiproliferative effects of semisynthetic derivatives were tested in culture on the highly malignant +SA mouse mammary epithelial cell line maintained on serum-free media and containing 10 ng/mL EGF and 10 μg/mL insulin as mitogens. […] After a 4-day culture period, viable +SA cell number was determined by the 3-(4,5-dimethylthi-azol-2yl)-2,5-diphenyl tetrazolium bromide (MTT) colorimetric assay.

For data set [2], the system named is PC-3M cells. The data set is described as follows: Transepithelial resistance (TER), stability of junctional complexes. The format is cell-based, human. On the procedure:
Stability of junctional complexes can be estimated by the measurement of transepithelial resistance (TER). Cells were plated at confluency and grown on six well Transwell filters (0.4 μm pore size) in complete medium. TER values were measured in duplicate wells in every 12 hours using EVOM voltohmmeter (World Precision Instruments). The TER values were normalized to the area of the monolayer filter, and calculated by subtracting the blank values from the filter and bathing medium. All cell culture media were supplemented with 25 mM Hepes, pH 7.4, and the integrity and cell density of monolayers were carefully monitored during TER measurement studies.

Data set [3] deals with PC-3M cells. Kind of data set: […] invasion assay. The format is cell-based, human.
Procedure: Invasion assays were conducted in 24-well, two compartmented, invasion chambers sold under the trademark “[sequence]” and available from Becton Dickinson, Bedford, Mass. Exponentially growing prostate cancer cell line was serum-starved for 24 hours with basal RPMI medium containing no serum or growth factors (but containing 0.1% BSA, 10 mM HEPES, 4 mM L-glutamine, 100 IU/mL penicillin G and 100 mg/mL streptomycin). The cells were then harvested and seeded at a density of 25×10^3 cells/well in the upper insert of the [sequence] invasion chamber. The lower chamber received the chemo-attractant medium, which consisted of 90% basal RPMI medium and 10% conditioned medium from the cultures of PC-3M cells expressing active Gas protein. The incubations were carried out for 24 hours, after which the [sequence] […] The number of cells migrated on the outer bottom side of the insert was counted under the microscope in six or more randomly selected fields (magnification: 100×). The final results were expressed as mean +/− SEM per 100× field. […]
To correct this probability, the growth rate of PC-3M cells was determined under identical culture conditions. […] Mean percent increase in the cell number was determined at the end of the incubation period by counting the net increase in the number of cells. […]
The subject of data set [4] is PC-3M cells. The data set is described as follows: MTT proliferation assay, prostate cell line PC-3M. The following applies: 50 nM dose. The class given is cell-based, human. Background: Tetrazolium dyes change colour on reduction, which living cells bring about.
Procedure: Proliferation of PC-3M MTT Assays. The growth of prostate cell line PC-3M was measured by 3-(4,5-dimethylthi-azol-2yl)-2,5-diphenyl tetrazolium bromide (MTT) assay. Exponentially growing cells were plated in a 96-well plate at a density of 8×10^3 cells per well and allowed to attach for 24 hours. Complete growth medium was replaced with 100 μl of RPMI serum-free medium (GIBCO-Invitrogen, NY) and culture continued at 37° C. under 5% CO2. After 24 hours of culture, the cells were treated with MTT solution at 37° C. for 4 hours. The color reaction was stopped by the addition of solubilization/stop solution (100 μl/well), and the incubation at 37° C. continued to completely dissolve the formazan product. Absorbance of the samples was determined at 595 nm with an ELISA plate reader (Bio-Rad, Hercules, Calif.).
Data set [5] relates to PC-3M cells. Kind of data set: Growth rate of PC-3M cells by cell counting (correction for the invasion assay). The following applies: CT 50 nM, 1-24 hours; vehicle control=1. The class given is cell-based, human. On the procedure: To correct this probability, the growth rate of PC-3M cells was determined under identical culture conditions. 25×10^3 cells were plated at hourly intervals in six-well dishes and cultured with/without CT (50 nM) for 1-24 hours. Mean percent increase in the cell number was determined at the end of the incubation period by counting the net increase in the number of cells. […] This correction was applied to the results of invasion assays.

Data set [6] deals with PC-3M cells. Kind of data set: Permeability assay (paracellular diffusion of dextran). The class given is cell-based, human. As to conditions: CT alone. On the procedure: Permeability assay (Paracellular diffusion of Dextran). Cells were plated at confluency and grown on 12 well Transwell filters in complete medium for optimum TER development. Tetramethyl-rhodamine-dextran, with an average molecular mass of 4 kDa (available from Sigma in St. Louis, Mo.) dissolved in Hanks' Balanced Salt Solution (HBSS) to a concentration of 1 mg/ml was added to the upper chamber. The lower chamber was replaced with HBSS. At various time intervals, 100 μl aliquots were collected from the lower chamber and assayed […] spectrophotometer using excitation 530 and emission 590.

Data set [7] can be described thus: Substrate control (tested compound in blank media without microorganisms). As to conditions: 14 days. The format is physicochemical. From the text: This conclusion was based on the rapid enzymatic actetate hydrolysis by most microbial species during biocatalytic screening while compound 22 was stable for 14 days in substrate control (tested compound in blank media without microorganisms).

The mark [8] stands for this setting: 15-40 μM dose, compared to vehicle controls.

Like-named read-outs stand apart in the source and are kept apart here. Ends that are not written are not given here.

As for `C/C1=C\C(=O)C[C@](C)(O)/C=C/[C@H](C(C)C)CC/C(C)=C/CC1` [Compound 29, (1S,2E,4S,7E,11E)-2,7,11-cembratriene-4-ol-6-one], in data set [1], the antiproliferative activity result is reported as “low antiproliferative activity”.
Consider `C/C1=C/C(=O)C[C@](C)(O)/C=C/[C@H](C(C)C)CC/C(C)=C/CC1` [Compound 30, (1S,2E,4S,6R,7E,11E)-2,7,11-cembratriene-4-ol-6-one], for which the figures for the antiproliferative activity result in data set [1] and in data set [1] (setting [8]) were “potent antiproliferative agent” and “potent antiproliferative activity”, respectively. Half-maximal inhibition in data set [1] (Mus musculus, Epithelial cell, 96 h) (IC50) required 15 µM. The “activity relative to parent compound 21” value in data set [1] (at higher doses) is “no more active”.
For `CC(=O)/C=C/C(CC/C(C)=C/CC/C(C)=C/C(C)=O)C(C)C` (stereo not shown) [Compound 31, (3E,7E,12E)-11-isopropyl-4,8-dimethylpentadeca-3,7,12-triene-2,14-dione], the antiproliferative activity entry in data set [1] (setting [8]) was “potent antiproliferative activity”.
Turning to `CC(=O)O[C@H]1/C=C(\C)CC[C@@H]2OC(=N)S[C@@]2(C)CC[C@@H](C(C)C)/C=C/[C@@](C)(O)C1` [Compound 28, 6-O-acetyl-(1S,2E,4S,6R,7Z,11S,12S)-2,7-cembradiene-11,12-oxathiaol-21-imino-4,6-diol], the antiproliferative activity result in data set [1] is “devoid of activity”.
For the compound `CCNC(=O)O[C@H]1/C=C(/C)CC/C=C(\C)CC[C@@H](C(C)C)/C=C/[C@](C)(O)C1` [Compound 9, 6-O-[N-(ethyl)carbamoyl](1S,2E,4R,6R,7Z,11E)-2,7,11-cembratriene-4,6-diol], the “stabilization of junctional complexes” value in data set [2] (baseline and CT-stimulated TER and paracellular permeability) was “stabilized junctional complexes”.
Regarding `C/C1=C\[C@H](O)C[C@@](C)(O)/C=C/[C@H](C(C)C)C[C@@H](O)/C(C)=C/CC1` [Compound 7, (1S,2E,4R,6R,7E,11E,13R)-2,7,11-cembratriene-4,6,13-triol], the anti-invasive activity entry in data set [3] (50 nM dose) is “potent anti-invasive activity”. Besides, in data set [4], the cytotoxicity result is on record as “without cytotoxicity”.
On to “Calcitonin (CGNLSTCMLGTYTQDFNKFHTFPQTAIGVGAP; ends and bridges not checked; cysteine pairing not given here; UniProt P01258 85-116, looked up) [CT, reference compound]”, for which the “effect on TER of PC-3M cell cultures” value in data set [2] (50 nM CT) is listed as “dramatic reduction”. For the same compound, the “increase in the number of invaded cells” value in data set [3] (pooled data of multiple experiments) was “two-fold”. Besides, the “relative CT-induced increase in cell number, pooled results of all time points” value in data set [5] is reported as 1.19. Besides, in data set [6], the “paracellular permeability of PC-3M cells” value was “increased”.
With `CC(=O)O[C@H]1/C=C(\C)CC/C=C(\C)[C@@H](O)C[C@@H](C(C)C)/C=C/[C@@](C)(O)C1` [Compound 26, (1S,2E,4S,6R,7E,11E,13S)-2,7,11-cembratriene-4,6,13-triol-6-O-acetate], in data set [1], the antiproliferative activity result is reported as “much more active than the 13R” and the IC50 was found to be 20 µM. Besides, in data set [1] (setting [8]), the antiproliferative activity result is recorded as “potent antiproliferative activity”.
In turn, `CC(=O)O[C@H]1/C=C(\C)CC/C=C(\C)[C@H](O)C[C@@H](C(C)C)/C=C/[C@@](C)(O)C1` [Compound 25, (1S,2E,4S,6R,7E,11E,13R)-2,7,11-cembratriene-4,6,13-triol-6-O-acetate] had an IC50 in data set [1] of 30 µM. In data set [1] (setting [8]), the antiproliferative activity entry is on record as “potent antiproliferative activity”.
The compound `CC(C)=CCC/C(C)=C/CC/C(C)=C/CC[C@]1(C)CCc2cc(O)cc(C)c2O1` [δ-tocotrienol, reference compound] returned an IC50 in data set [1] of 7 µM.
Turning to `CC(=O)O[C@H]1/C=C(/C)CC/C=C(\C)CC[C@@H](C(C)C)/C=C/[C@@](C)(O)C1` [Compound 22, 6-O-acetyl-(1S,2E,4S,6R,7Z,11E)-2,7,11-cembratriene-4,6-diol], the antiproliferative activity result in data set [1] was “reduced activity”. Further, in data set [7], the “stability in substrate control” value is “stable”.

As a reminder, the IC50 is the midpoint of a concentration-inhibition curve. High values mean lower potency, low ones higher potency.
